US20060069132A1, “Azolecarboxamide herbicides” (priority 2004, published 2006)
Like-named read-outs stand apart in the source and are kept apart here.

Columns and labels:
[1] = test system: small flower umbrella sedge; experiment: Test B flooded paddy test; type: in vivo, Cyperus difformis; settings: Cyperus difformis, 336 h, 1000 g ai/ha, scale 0 to 100 (0 no effect, 100 complete control), read-out: Sedge, Umbrella plant response rating
Procedure, shortened: (§1)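 Formulated test chemicals went onto postemergence plants measuring 2 to 18 cm, at one to four leaves. For the paddy assay, species had reached two leaves. Scoring took place 13–15 days later by eye, relative to untreated plants, using 0 for no effect up to 100 for full control.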

cocklebur = experiment: Test B pre-/postemergence herbicide test; type: in vivo, Xanthium strumarium; settings: for pest or weed control at 500 g/ha: 500 g ai/ha
Procedure, shortened: (§2)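 Plants compared with untreated controls 13–15 days post-treatment and given a visual 0–100 injury score. Applications: preemergence to seeds; postemergence at 1- to 4-leaf (2–18 cm); paddy species flooded, 2-leaf stage. Vehicle non-phytotoxic, surfactant included.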

Surinam grass = experiment: Test B pre-/postemergence herbicide test; type: in vivo, Urochloa decumbens; settings: for pest or weed control at 500 g/ha: 500 g ai/ha
Procedure, shortened: (§3)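 Response was scored visually 13 to 15 days after treatment against untreated greenhouse controls, 0 meaning no effect and 100 complete control. Formulations (solvent mixture plus surfactant) went onto soil after planting, onto foliage of 1- to 4-leaf plants, and onto 2-leaf plants in a flooded paddy set including rice and barnyardgrass.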

giant foxtail = experiment: Test B pre-/postemergence herbicide test; type: in vivo, Setaria faberi; settings: for pest or weed control at 500 g/ha: 500 g ai/ha
Procedure, shortened: as §3

large crabgrass = experiment: Test B pre-/postemergence herbicide test; type: in vivo, Digitaria sanguinalis; settings: for pest or weed control at 500 g/ha: 500 g ai/ha
Procedure, shortened: as §3

barnyardgrass [2] = experiment: Test B flooded paddy test; type: in vivo, Echinochloa crus-galli; settings: Echinochloa crus-galli, 336 h, 1000 g ai/ha, scale 0 to 100 (0 no effect, 100 complete control), read-out: Barnyardgrass plant response rating
Procedure, shortened: as §1

barnyardgrass [3] = experiment: Test B pre-/postemergence herbicide test; type: in vivo, Echinochloa crus-galli; settings: for pest or weed control at 500 g/ha: 500 g ai/ha
Procedure, shortened: as §2

wild oat = experiment: Test B postemergence herbicide test; type: in vivo, Avena fatua; settings: Avena fatua, post-emergence, 336 h, read-out: Oat, Wild plant response rating
Procedure, shortened: (§4)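 Plants grow to 1- to 4-leaf stage (2–18 cm) for postemergence spraying, or to 2-leaf stage for the paddy test. Formulated compound is applied. Greenhouse holding lasts 13–15 days. Response is scored visually relative to controls, 0 no effect to 100 complete control; a dash means no result.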

lambsquarters = experiment: Test B pre-/postemergence herbicide test; type: in vivo, Chenopodium album; settings: for pest or weed control at 500 g/ha: 500 g ai/ha
Procedure, shortened: as §3

morningglory = experiment: Test B pre-/postemergence herbicide test; type: in vivo, Ipomoea coccinea; settings: for pest or weed control at 500 g/ha: 500 g ai/ha
Procedure, shortened: as §2

wheat = experiment: Test B postemergence herbicide test; type: in vivo, Triticum aestivum; settings: Triticum aestivum, post-emergence, 336 h, read-out: Wheat plant response rating
Procedure, shortened: as §4

velvetleaf = experiment: Test B pre-/postemergence herbicide test; type: in vivo, Abutilon theophrasti
Procedure, shortened: as §3

ducksalad = experiment: Test B flooded paddy test; type: in vivo, Heteranthera limosa; settings: Heteranthera limosa, 336 h, 1000 g ai/ha, scale 0 to 100 (0 no effect, 100 complete control), read-out: Ducksalad plant response rating
Procedure, shortened: as §1

pigweed = experiment: Test B pre-/postemergence herbicide test; type: in vivo, Amaranthus retroflexus; settings: for pest or weed control at 500 g/ha: 500 g ai/ha
Procedure, shortened: as §3

rice = experiment: Test B flooded paddy test; type: in vivo, Oryza sativa; settings: Oryza sativa, 336 h, 1000 g ai/ha, scale 0 to 100 (0 no effect, 100 complete control), read-out: Rice plant response rating
Procedure, shortened: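 Postemergence plants were sprayed with formulated test chemicals at 2 to 18 cm height (1- to 4-leaf stage); paddy species were grown to the 2-leaf stage. After 13 to 15 days in a greenhouse, injury was rated visually against untreated controls on a 0–100 scale (0 = no effect, 100 = complete control).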

[4] = 125 g ai/ha, 0 is no effect, 100 is complete control, preemergence
[5] = 125 g ai/ha, visual rating, scale 0 (no effect) to 100 (complete control)
[6] = postemergence, 500 g ai/ha, scale 0 to 100, 0 is no effect, 100 is complete control

CCc1nn(C(C)C)nc1C(=O)Nc1cccc(C(=O)N(C)C)c1 [Compound 358, N-[3-[(dimethylamino)carbonyl)phenyl]-5-ethyl-2-(1-methylethyl)-2H-1,2,3-triazole-4-carboxamide]
pest or weed control at 1000 g/ha [1]: 80% | Plant response rating (0 to 100 scale), Cocklebur (cocklebur; [4]): 40 | pest or weed control at 125 g/ha (cocklebur; Xanthium strumarium, post-emergence, 125 g ai/ha, visual rating, scale 0 (no effect) to 100 (complete control), read-out: Cocklebur plant response rating): 0% | pest or weed control at 500 g/ha (cocklebur; Xanthium strumarium, post-emergence, postemergence, scale 0 to 100, 0 is no effect, 100 is complete control, read-out: Cocklebur plant response rating): 20% | pest or weed control at 500 g/ha (cocklebur; Xanthium strumarium, pre-emergence, visual rating, 0 = no effect, 100 = complete control, read-out: Plant response rating, Cocklebur): 90% | Plant response rating (0 to 100 scale), Surinam Grass (Surinam grass; [4]): 50 | pest or weed control at 125 g/ha (Surinam grass; Urochloa decumbens, post-emergence, 125 g ai/ha, visual rating, scale 0 (no effect) to 100 (complete control), read-out: Surinam Grass plant response rating): 10% | pest or weed control at 500 g/ha (Surinam grass; Urochloa decumbens, post-emergence, postemergence, scale 0 to 100, 0 is no effect, 100 is complete control, read-out: Surinam Grass plant response rating): 10% | pest or weed control at 500 g/ha (Surinam grass; Urochloa decumbens, pre-emergence, visual rating, 0 = no effect, 100 = complete control, read-out: Plant response rating, Surinam Grass): 100% | Plant response rating (0 to 100 scale), Foxtail, Giant (giant foxtail; [4]): 60 | pest or weed control at 125 g/ha (giant foxtail; Setaria faberi, post-emergence, 336 h, 125 g ai/ha, visual rating, scale 0 (no effect) to 100 (complete control), read-out: Foxtail, Giant plant response rating): 10% | pest or weed control at 500 g/ha (giant foxtail; Setaria faberi, post-emergence, 336 h, postemergence, scale 0 to 100, 0 is no effect, 100 is complete control, read-out: Foxtail, Giant plant response rating): 30% | pest or weed control at 500 g/ha (giant foxtail; Setaria faberi, pre-emergence, 336 h, visual rating, 0 = no effect, 100 = complete control, read-out: Plant response rating, Foxtail, Giant): 100% | Plant response rating (0 to 100 scale), Crabgrass, Large (large crabgrass; [4]): 100 | pest or weed control at 125 g/ha (large crabgrass; Digitaria sanguinalis, post-emergence, 125 g ai/ha, visual rating, scale 0 (no effect) to 100 (complete control), read-out: Crabgrass, Large plant response rating): 10% | pest or weed control at 500 g/ha (large crabgrass; Digitaria sanguinalis, post-emergence, postemergence, scale 0 to 100, 0 is no effect, 100 is complete control, read-out: Crabgrass, Large plant response rating): 10% | pest or weed control at 500 g/ha (large crabgrass; Digitaria sanguinalis, pre-emergence, visual rating, 0 = no effect, 100 = complete control, read-out: Plant response rating, Crabgrass, Large): 100% | pest or weed control at 1000 g/ha (barnyardgrass [2]): 80% | Plant response rating (0 to 100 scale), Barnyardgrass (barnyardgrass [3]; [4]): 70 | pest or weed control at 125 g/ha (barnyardgrass [3]; Echinochloa crus-galli, post-emergence, 125 g ai/ha, visual rating, scale 0 (no effect) to 100 (complete control), read-out: Barnyardgrass plant response rating): 10% | pest or weed control at 500 g/ha (barnyardgrass [3]; Echinochloa crus-galli, post-emergence, postemergence, scale 0 to 100, 0 is no effect, 100 is complete control, read-out: Barnyardgrass plant response rating): 20% | pest or weed control at 500 g/ha (barnyardgrass [3]; Echinochloa crus-galli, pre-emergence, visual rating, 0 = no effect, 100 = complete control, read-out: Plant response rating, Barnyardgrass): 100% | pest or weed control at 125 g/ha (wild oat; [5]): 20% | pest or weed control at 500 g/ha (wild oat; [6]): 30% | Plant response rating (0 to 100 scale), Lambsquarters (lambsquarters; [4]): 100 | pest or weed control at 125 g/ha (lambsquarters; Chenopodium album, post-emergence, 336 h, 125 g ai/ha, visual rating, scale 0 (no effect) to 100 (complete control), read-out: Lambsquarters plant response rating): 30% | pest or weed control at 500 g/ha (lambsquarters; Chenopodium album, post-emergence, 336 h, postemergence, scale 0 to 100, 0 is no effect, 100 is complete control, read-out: Lambsquarters plant response rating): 50% | pest or weed control at 500 g/ha (lambsquarters; Chenopodium album, pre-emergence, 336 h, visual rating, 0 = no effect, 100 = complete control, read-out: Plant response rating, Lambsquarters): 100% | Plant response rating (0 to 100 scale), Morningglory (morningglory; [4]): 50 | pest or weed control at 125 g/ha (morningglory; Ipomoea, post-emergence, 336 h, 125 g ai/ha, visual rating, scale 0 (no effect) to 100 (complete control), read-out: Morningglory plant response rating): 20% | pest or weed control at 500 g/ha (morningglory; Ipomoea, post-emergence, 336 h, postemergence, scale 0 to 100, 0 is no effect, 100 is complete control, read-out: Morningglory plant response rating): 50% | pest or weed control at 500 g/ha (morningglory; Ipomoea, pre-emergence, 336 h, visual rating, 0 = no effect, 100 = complete control, read-out: Plant response rating, Morningglory): 100% | plant injury at 125 g/ha (wheat; [5]): 0% | plant injury at 500 g/ha (wheat; [6]): 10% | Plant response rating (0 to 100 scale), Velvetleaf (velvetleaf; [4]): 50 | pest or weed control at 125 g/ha (velvetleaf; Abutilon theophrasti, post-emergence, 336 h, 125 g ai/ha, visual rating, scale 0 (no effect) to 100 (complete control), read-out: Velvetleaf plant response rating): 10% | pest or weed control at 500 g/ha (velvetleaf; Abutilon theophrasti, post-emergence, 336 h, postemergence, 500 g ai/ha, scale 0 to 100, 0 is no effect, 100 is complete control, read-out: Velvetleaf plant response rating): 20% | pest or weed control at 1000 g/ha (ducksalad): 90% | Plant response rating (0 to 100 scale), Pigweed (pigweed; [4]): 70 | pest or weed control at 125 g/ha (pigweed; Amaranthus retroflexus, post-emergence, 336 h, 125 g ai/ha, visual rating, scale 0 (no effect) to 100 (complete control), read-out: Pigweed plant response rating): 20% | pest or weed control at 500 g/ha (pigweed; Amaranthus retroflexus, post-emergence, 336 h, postemergence, scale 0 to 100, 0 is no effect, 100 is complete control, read-out: Pigweed plant response rating): 40% | pest or weed control at 500 g/ha (pigweed; Amaranthus retroflexus, pre-emergence, 336 h, visual rating, 0 = no effect, 100 = complete control, read-out: Plant response rating, Pigweed): 100% | plant injury at 1000 g/ha (rice): 70%
